Patent US8633356B2, “Method for controlling root parasitic plants” (Riken, priority 2008, dated 2014)

Legend:
S. hermonthica seeds = test: Germination assay using S. hermonthica seeds; format: in vivo, Striga hermonthica; conditions: positive control, 10^−7 M (FIG. 2f)
Source text: The levels of strigolactones released to hydroponic culture media were estimated by germination stimulating activity using S. hermonthica seeds as described previously ^32 Strigolactones were identified and quantified on LC-MS/MS by comparing the retention time and full-scan spectrum with those of authentic standards. We synthesized deuterium-labeled epi-5DS (d1-epi-5DS) and used as an internal standard for quantitative analysis using LC-MS/MS. Germination assays using S. hermonthica were performed as described previously^32 For each bioassay, de-ionized water and (+)-strigol solution were used as negative and positive controls, respectively.

[1] = test system: tiller bud outgrowth of rice
Procedure: Rice and Arabidopsis seeds were surface-sterilized and the seedlings were first grown aseptically on agar media. Plants were then grown hydroponically in growth chambers. For both rice and Arabidopsis, strigolactones were added to the hydroponic culture medium.
We used rice normal cultivars (Oryza sativa L. cv. Shiokari and cv. Nipponbare) and tillering dwarf mutants (FIG. 6) in this study. Rice seeds were washed in 70% ethanol for 30 sec, sterilized in 2.5% sodium hypochlorite solution for 15 min, rinsed with sterile water, and then imbibed at 28° C. in the dark for 2 days. Germinated seeds were transferred into hydroponic culture media^39 solidified with 0.6% agar (pH5.7) and cultured at 25° C. under fluorescence white light (150-200 μmol m^−2 s^−1) with a 16 h light/8 h dark photoperiod for 5 days. Each seedling was then transferred to a glass vial containing a sterilized hydroponic culture solution (13 ml), fixed with a piece of sponge at the root-shoot junction to the top of the vial, and grown under the same condition for additional 7 days (total 2 weeks). The hydroponic solution was supplemented every 3 days. For large-scale cultures, the 2-weeks-old seedlings were transferred into a 4-L porcelain pot containing the same hydroponic solution and grown under the same condition. After the transfer to pots, the solution was renewed weekly.
To further investigate the relationships between the D10/D17-derived branching inhibitor and strigolactones, we examined the effect of strigolactone treatment on rice d mutants.

D10 transcript = test: qRT-PCR of D10 transcript levels in rice roots; format: in vivo, Oryza sativa; conditions: roots of 8-day-old seedlings, 1 μM (+)-GR24 for 24 h (FIG. 3h)
Procedure: We performed quantitative reverse transcription-PCR (qRT-PCR) to determine D10 transcript levels, according to the method described before^38. Total RNA was extracted from roots using RNeasy Maxi kit (Qiagen). qRT-PCR was carried out to determine D10 transcript levels using gene specific primers and a Taq-Man probe (Table 1 as describe above). Ubiquitin expression was used as an internal standard.

[2] = test system: axillary bud outgrowth of Arabidopsis; test: Axillary bud outgrowth (shoot branching) of Arabidopsis in hydroponic culture; format: in vivo, Arabidopsis thaliana; conditions: 5 μM in the hydroponic culture media
Procedure: Plants were then grown hydroponically in growth chambers. […] We used Arabidopsis thaliana ecotype Col-0 as the wild type and max mutants (FIG. 6). Seeds were sterilized in 1% sodium hypochlorite solution for 5 min, rinsed with sterile water, and stratified for one day at 4° C. […] Plants were then transferred to a glass pot containing 400 ml hydroponic solution^41 and grown under the same environmental condition for additional 15 days. The solution was renewed every 3 days. To measure germination stimulants, sterilized and stratified seeds were placed on glass beads (30 ml) wetted with 1/10 strength MS liquid media (10 ml) in a Petri dish (9 cm diameter) and grown for 14 days under the same conditions above. The culture media were collected and subjected to S. hermonthica germination assay.

Row | SMILES | germination of S. hermonthica seeds (S. hermonthica seeds) | tiller bud outgrowth at 1 μM ([1]; 1 μM, 2-week-old d10-1 and d17-1 seedlings) | lowest concentration at which the inhibitory effect on tiller bud outgrowth was detectable ([1]; 2-week-old d10-1 and d17-1 seedlings) | inhibition of tiller bud outgrowth ([1]; 2-week-old d10-1 and d17-1 seedlings, compound applied to the media) | effect on d3-1 mutant plants ([1]; 6-week-old d3-1, 2 μM in the culture media) | branching phenotype and plant height of d10-1 mutant ([1]; 6-week-old d10-1, 2 μM in the culture media) | sensitivity of tiller bud outgrowth of the d3-1 mutant ([1]; d3-1 mutant seedlings (defective in probable signaling component)) | morphological abnormalities in wild type seedlings after treatment ([1]; in vivo) | plant height of wild type seedlings ([1]; in vivo) | D10 transcript levels in d10-1 and wild type seedlings (D10 transcript) | sensitivity of branching of max2 mutants [2] | enhanced branching phenotype of max3 and max4 mutants ([2]; 30-day-old plants)
1 | CC1=C[C@H](O/C=C2/C(=O)O[C@@H]3C4=C(C[C@H]23)[C@@H](O)CCC4(C)C)OC1=O [(+)-strigol, (+)-Strigol] | germination induced |  |  |  |  |  |  |  |  |  |  | 
2 | CC1=C[C@H](O/C=C2/C(=O)O[C@@H]3c4ccccc4C[C@H]23)OC1=O [GR24] |  | nearly fully inhibited | 10 nM | inhibited tiller bud outgrowth of 2-week-old d10-1 and d17-1 seedlings in a dose-dependent manner | no visible effect | complemented | insensitive | No morphological abnormalities were evident | did not change the plant height | decreased | insensitive | rescued
